Test results taken from ChEMBL document CHEMBL1201862, “PubChem BioAssay data set” (2004).
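48-hour exposure; five concentrations; linearly interpolated endpoints. GI50 = concentration required for 50% inhibition of growth.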 The source made the active and inactive calls. Rule as the data show it: active = GI50 up to about 1.1 µM and inactive = higher.

Columns and labels:
Assay in all cases: DTP human tumour cell line panel, 48 h
EKVX = tested on: EKVX
HOP-92 = tested on: HOP-92
KM12 = tested on: KM12
ACHN = tested on: ACHN
IGROV-1 = tested on: IGROV-1
SNB-75 = tested on: SNB-75
NCI/ADR-RES = tested on: NCI/ADR-RES
SK-MEL-2 = tested on: SK-MEL-2
SK-MEL-5 = tested on: SK-MEL-5
HT-29 = tested on: HT-29
HOP-62 = tested on: HOP-62
OVCAR-8 = tested on: OVCAR-8
NCI-H522 = tested on: NCI-H522
786-0 = tested on: 786-0
COLO 205 = tested on: COLO 205
Malme-3M = tested on: Malme-3M
T47D = tested on: T47D
U-251 = tested on: U-251
HL-60 = tested on: HL-60
CCRF-CEM = tested on: CCRF-CEM

Compound | GI50 (EKVX) | GI50 (HOP-92) | GI50 (KM12) | GI50 (ACHN) | GI50 (IGROV-1) | GI50 (SNB-75) | GI50 (NCI/ADR-RES) | GI50 (SK-MEL-2) | GI50 (SK-MEL-5) | GI50 (HT-29) | GI50 (HOP-62) | GI50 (OVCAR-8) | GI50 (NCI-H522) | GI50 (786-0) | GI50 (COLO 205) | GI50 (Malme-3M) | GI50 (T47D) | GI50 (U-251) | GI50 (HL-60) | GI50 (CCRF-CEM)
N=C(N)N/N=C(/c1ccccc1)c1ccc(O)cc1O | 22.2 µM (inactive) | 36.6 µM (inactive) | 30.5 µM (inactive) | 45.9 µM (inactive) | 25.1 µM (inactive) | 49 µM (inactive) | 95.3 µM (inactive) | 45.7 µM (inactive) | 25.8 µM (inactive) | 19.7 µM (inactive) | 32 µM (inactive) | 24.6 µM (inactive) | 15.3 µM (inactive) | 29.2 µM (inactive) | 17.5 µM (inactive) | 22.6 µM (inactive) | 45.3 µM (inactive) | 22.5 µM (inactive) | – | –
Cc1csc2nc(-c3ccc(Cl)c([N+](=O)[O-])c3)c(/C=N/NC(=N)N)n12 | 1.49 µM (inactive) | 0.163 µM (active) | 1.75 µM (inactive) | 1.6 µM (inactive) | – | 1.57 µM (inactive) | 2.21 µM (inactive) | 1.22 µM (inactive) | 1.52 µM (inactive) | 1.77 µM (inactive) | 1.61 µM (inactive) | 0.406 µM (active) | – | 1.49 µM (inactive) | 1.15 µM (inactive) | 1.9 µM (inactive) | 1.81 µM (inactive) | 1.5 µM (inactive) | 1.7 µM (inactive) | 1.01 µM (active)
C=CCCCCCCC#CCCCCCCCCCC[C@@H]1C(=O)O[C@H](C)[C@@H]1O.CCCCCCCCC#CCCCCCCCCCC[C@@H]1C(=O)O[C@H](C)[C@@H]1O | 16.8 µM (inactive) | 10.5 µM (inactive) | 10.1 µM (inactive) | 17.7 µM (inactive) | 15.7 µM (inactive) | 16.7 µM (inactive) | 9.59 µM (inactive) | 14.7 µM (inactive) | 13.3 µM (inactive) | – | 16 µM (inactive) | 15.3 µM (inactive) | 5.32 µM (inactive) | 15.8 µM (inactive) | 24.8 µM (inactive) | 17.5 µM (inactive) | 14.9 µM (inactive) | 18.7 µM (inactive) | – | –
CC1=C(C(=O)OCCc2ccc([N+](=O)[O-])cc2)C(c2ccccc2C(F)(F)F)C(C(=O)OC(C)C)=C(C)N1 (stereo not drawn) | 2.05 µM (inactive) | – | 2.88 µM (inactive) | 3.06 µM (inactive) | 4.88 µM (inactive) | 4.04 µM (inactive) | 2.75 µM (inactive) | 2.64 µM (inactive) | 1.64 µM (inactive) | 10.1 µM (inactive) | 3.51 µM (inactive) | 4.04 µM (inactive) | 3.31 µM (inactive) | 4.16 µM (inactive) | 2.97 µM (inactive) | 3.49 µM (inactive) | 3.12 µM (inactive) | 3.52 µM (inactive) | 1.79 µM (inactive) | 2.84 µM (inactive)
O=C(/C=C/c1ccsc1)c1ccsc1 | 70.5 µM (inactive) | – | 18.9 µM (inactive) | 20.4 µM (inactive) | 31.3 µM (inactive) | 37 µM (inactive) | > 100 µM (inactive) | > 100 µM (inactive) | 19.2 µM (inactive) | 26.8 µM (inactive) | > 100 µM (inactive) | 26.6 µM (inactive) | – | 21.4 µM (inactive) | 22.4 µM (inactive) | 26.4 µM (inactive) | 28.2 µM (inactive) | 18.1 µM (inactive) | 17 µM (inactive) | 19.1 µM (inactive)
N#CCCN(CCC#N)c1ccc(C(/N=N/c2ccc(Cl)cc2)=N\c2ccccc2)cc1 | 12.1 µM (inactive) | 16.4 µM (inactive) | 11.4 µM (inactive) | 13.4 µM (inactive) | 11.7 µM (inactive) | 17.4 µM (inactive) | 10.8 µM (inactive) | 2.09 µM (inactive) | 1.24 µM (inactive) | 17.9 µM (inactive) | 13.2 µM (inactive) | 15.1 µM (inactive) | 15.1 µM (inactive) | 14.9 µM (inactive) | 3.2 µM (inactive) | – | 8.55 µM (inactive) | 17.6 µM (inactive) | – | –
COc1ccc(C(=O)/C=C/c2ccc3c(c2)OCO3)c(OCc2ccccc2)c1 | 29.8 µM (inactive) | > 78 µM (inactive) | 4.83 µM (inactive) | 16.6 µM (inactive) | 17.7 µM (inactive) | > 55.1 µM (inactive) | – | > 57.1 µM (inactive) | 25.6 µM (inactive) | 6.78 µM (inactive) | > 100 µM (inactive) | 7.67 µM (inactive) | 9.68 µM (inactive) | > 67.8 µM (inactive) | > 75.5 µM (inactive) | > 100 µM (inactive) | > 43.5 µM (inactive) | > 57.5 µM (inactive) | 2.01 µM (inactive) | 4.3 µM (inactive)
C/C(=C\C(=O)O)C(=O)N(C)c1ccccc1I | > 100 µM (inactive) | > 100 µM (inactive) | > 100 µM (inactive) | > 100 µM (inactive) | – | > 100 µM (inactive) | > 100 µM (inactive) | > 100 µM (inactive) | > 100 µM (inactive) | – | > 100 µM (inactive) | > 100 µM (inactive) | – | > 100 µM (inactive) | > 100 µM (inactive) | > 100 µM (inactive) | > 100 µM (inactive) | > 100 µM (inactive) | – | > 100 µM (inactive)
CSc1ncc2c(C#N)c3n(C)c4ccccc4n3c(=O)c2n1 | > 100 µM (inactive) | > 100 µM (inactive) | > 100 µM (inactive) | > 100 µM (inactive) | > 100 µM (inactive) | > 100 µM (inactive) | > 100 µM (inactive) | > 100 µM (inactive) | > 100 µM (inactive) | > 100 µM (inactive) | > 100 µM (inactive) | > 100 µM (inactive) | – | > 100 µM (inactive) | > 100 µM (inactive) | > 100 µM (inactive) | > 100 µM (inactive) | > 100 µM (inactive) | > 100 µM (inactive) | > 100 µM (inactive)
COC1(OC)CCc2c(sc3ncnc(Nc4cccc(Br)c4)c23)C1 | 11.2 µM (inactive) | 30.5 µM (inactive) | 33.4 µM (inactive) | 5.71 µM (inactive) | 16.7 µM (inactive) | 26.5 µM (inactive) | 25.5 µM (inactive) | > 100 µM (inactive) | 30.9 µM (inactive) | 20 µM (inactive) | 74.5 µM (inactive) | 34.6 µM (inactive) | 12.4 µM (inactive) | 25.1 µM (inactive) | 35.4 µM (inactive) | 41.5 µM (inactive) | 23.1 µM (inactive) | 61.5 µM (inactive) | – | –
CC(C)/C(Cl)=N\OC(=O)Nc1ccc(F)c([N+](=O)[O-])c1 | 11.7 µM (inactive) | 2.22 µM (inactive) | 14.6 µM (inactive) | 1.79 µM (inactive) | 6.53 µM (inactive) | 14.2 µM (inactive) | 18.4 µM (inactive) | 16.2 µM (inactive) | 8.43 µM (inactive) | 15.9 µM (inactive) | 17.8 µM (inactive) | 5.52 µM (inactive) | 0.792 µM (active) | 2.78 µM (inactive) | 2.03 µM (inactive) | 1.16 µM (inactive) | – | 16.4 µM (inactive) | 1.01 µM (active) | 0.902 µM (active)
N#CCOc1cccc(C2(N3CC=CCC3)CCCCC2)c1 | > 100 µM (inactive) | – | > 100 µM (inactive) | > 100 µM (inactive) | > 100 µM (inactive) | – | > 100 µM (inactive) | > 100 µM (inactive) | > 100 µM (inactive) | > 100 µM (inactive) | > 100 µM (inactive) | 86.9 µM (inactive) | 57.8 µM (inactive) | > 100 µM (inactive) | > 100 µM (inactive) | > 100 µM (inactive) | > 100 µM (inactive) | > 100 µM (inactive) | 83.2 µM (inactive) | 42.3 µM (inactive)
C[n+]1ccccc1/C=C/c1ccc2c(c1)OCO2 | > 10 µM (inactive) | – | > 10 µM (inactive) | > 10 µM (inactive) | > 10 µM (inactive) | – | > 10 µM (inactive) | > 10 µM (inactive) | > 10 µM (inactive) | > 10 µM (inactive) | > 10 µM (inactive) | > 10 µM (inactive) | > 10 µM (inactive) | > 10 µM (inactive) | 4.55 µM (inactive) | > 10 µM (inactive) | > 10 µM (inactive) | > 10 µM (inactive) | > 10 µM (inactive) | > 10 µM (inactive)
CC(=O)OCC1OC(OCC2OC(N3C(=S)N[C@H]([C@@H](O)[C@H](O)[C@H](O)CO)[C@H]3O)C(OC(C)=O)C(OC(C)=O)C2OC(C)=O)C(OC(C)=O)C(OC(C)=O)C1OC(C)=O (stereo partly drawn) | – | 33.5 µM (inactive) | > 100 µM (inactive) | > 100 µM (inactive) | – | – | > 100 µM (inactive) | > 100 µM (inactive) | > 100 µM (inactive) | 65.6 µM (inactive) | > 100 µM (inactive) | 43.9 µM (inactive) | 83.8 µM (inactive) | > 100 µM (inactive) | > 100 µM (inactive) | > 100 µM (inactive) | 61.8 µM (inactive) | > 100 µM (inactive) | – | –
CN(C)c1ccc2c(SCC(=O)OCC(=O)[C@@]3(O)CC[C@H]4[C@@H]5CCC6=CC(=O)C=C[C@]6(C)[C@H]5C(=O)C[C@@]43C)c3ccc(N(C)C)cc3nc2c1 | 18.1 µM (inactive) | 30.7 µM (inactive) | 6.5 µM (inactive) | 4.53 µM (inactive) | 6.52 µM (inactive) | 20.6 µM (inactive) | – | 24.5 µM (inactive) | 15 µM (inactive) | 2.02 µM (inactive) | 57.9 µM (inactive) | 8.11 µM (inactive) | 21.8 µM (inactive) | 4.16 µM (inactive) | 5.79 µM (inactive) | > 100 µM (inactive) | 17.4 µM (inactive) | 15 µM (inactive) | 1.24 µM (inactive) | 1.35 µM (inactive)
